# In US4410535A, “Aza-bicyclo-benzamide derivatives and pharmaceutical compositions and use thereof” (Beecham Group Limited, priority 1980, dated 1983):
# Assays:
# Format in all cases: in vivo
# Dopamine Receptor = assay: Dopamine receptor blocking activity in the CNS: inhibition of apomorphine induced climbing in the mouse; details: s.c. (table footnote), apomorphine 1 mg/kg s.c. induced climbing
# [1] = test system: vomiting response to apomorphine HCl; assay: Anti-emetic activity in the dog (apomorphine HCl induced vomiting); details: Canis lupus familiaris, sc, 30 min before apomorphine HCl 0.1 mg/kg s.c.
# Method: I. Anti-emetic acitivity in the dog
# Compounds were administered subcutaneously 30 minutes prior to administration of a standard dose of apomorphine HCl (0.1 mg/kg subcutaneously) and the vomiting response compared to that obtained when the same animals were dosed with apomorphine HCl and vehicle only.
# (§1) The tests I and II shown above for anti-emetic and CNS activity respectively were used for the comparison testing of representative Compound 1 with 4-amino-5-chloro-2-methoxy-N-(3'β-[8'-benzyl]-8-azabicyclo[3.2.1]octyl)benzamide (A'). Compound A' was chosen because of the compounds specifically disclosed in European Patent Application No. 793029978 and U.S. Pat. No. 4,273,778 it has the best anti-emetic activity and is the structurally closest compound to compound 1. Other compounds of the Examples were also submitted to tests I and II.
# [2] = Therapeutic ratio for anti-emetic activity based upon CNS effects (tests I and II); details: relative to compound A'
# Excerpt: as §1
# [3] = test system: gastric motility inhibited by 6,7-ADTN; assay: Gastric motility testing in the rat: reversal of the inhibitory effect of 6,7-ADTN; details: s.c., 10 minutes after 6,7-ADTN 1 mg/kg s.c.; conscious chronic gastric fistula rat
# Method: III. Gastric Motility Testing in the rat
# The compounds were tested for ability to reverse the inhibitory effect of 6,7-ADTN on gastric motility as recorded by an open tipped catheter in the conscious chronic gastric fistula rat. Administration of 1 mg/kg s.c. of 6,7-ADTN reduced basal gastric motor activity and this was reversed by the administration of 0.008 mg/kg s.c. of compound 1. administered 10 minutes after the 6,7-ADTN. […] For subcutaneous testing the compound was dissolved in water by the addition of tartaric acid (1/2 mole per mole of compound).
SMILES,CNS activity (ED50) (Dopamine Receptor),ED50 [1],"improvement of therapeutic ratio for anti-emetic activity based upon CNS effects, compared with compound A' [2]","dose reversing the 6,7-ADTN inhibition of gastric motor activity [3]"
"COc1cc(N)c(Cl)cc1C(=O)N[C@@H]1C[C@H]2CC[C@@H](C1)N2Cc1ccccc1 [Compound A', 4-amino-5-chloro-2-methoxy-N-(3'β-[8'-benzyl]-8-azabicyclo[3.2.1]octyl)benzamide, reference compound]",0.0029 mg/kg,0.0005 mg/kg,,
"COc1cc(N)c(S(C)(=O)=O)cc1C(=O)N[C@@H]1C[C@H]2CC[C@@H](C1)N2Cc1ccccc1 [Compound 1, 4-Amino-2-methoxy-5-methylsulphonyl-N-[3-β-(8-benzyl-8-azabicyclo[3.2.1]octyl)]benzamide]",3.5 mg/kg,0.002 mg/kg,more than 300 times,0.008 mg/kg
"COc1cc(N)c(S(C)(=O)=O)cc1C(=O)N[C@@H]1C[C@H]2CC[C@@H](C1)N2C [Compound 3, 4-Amino-2-methoxy-5-methylsulphonyl-N-[3β-(8-methyl-8-azabicyclo[3.2.1]octyl)]benzamide]",80 mg/kg,0.5 mg/kg,,
"CCS(=O)(=O)c1cc(C(=O)N[C@@H]2C[C@H]3CC[C@@H](C2)N3Cc2ccccc2)c(OC)cc1N [Compound 2, 4-Amino-5-ethylsulphonyl-2-methoxy N-[3-β-(8-benzyl-8azabicyclo{3,2,1}octyl)]benzamide]",3.5 mg/kg,0.01 mg/kg,,
